Test results from ChEMBL document CHEMBL1154345, “Discovery of tricyclic 5,6-dihydro-1H-pyridin-2-ones as novel, potent, and orally bioavailable inhibitors of HCV NS5B polymerase” (Bioorg Med Chem Lett, 2009).
pEC50: −log10 of the molar value.

How the values were obtained:
Hepatitis C virus [1] = assay: microbe, parasite or virus in culture; format: functional, organism-based, Hepacivirus hominis, subtype 1a, Huh-lunet
Description: Antiviral activity against HCV-1a infected in human Huh-lunet cells after 4 days by luciferase based replicon assay

Hepatitis C virus [2] = assay: microbe, parasite or virus in culture; format: functional, organism-based, Hepacivirus hominis, genotype 1b, Huh-luc/neo-ET
Description: Antiviral activity against HCV-1b infected human Huh-luc/neo-ET replicon cells after 72 hrs by luciferase based replicon assay

[3] = Cytotoxicity against human HuH7 cells assessed as GAPDH release; format: cell-based, Huh-7
in vitro [4] = conditions: human, t1/2
in vitro [5] = conditions: human
Description: Metabolic stability in human liver microsomes assessed as compound remaining after 60 mins at 1 uM

in vitro [6] = conditions: rhesus monkey
Description: (§2) Metabolic stability in monkey liver microsomes assessed as half life at 5 uM

in vitro [7] = conditions: rhesus monkey, Stability
Description: (§3) Metabolic stability in monkey liver microsomes assessed as compound remaining after 60 mins at 5 uM

physchem = conditions: aqueous medium, pH 7.5
Description: Aqueous solubility at pH 7.5

[8] = Oral bioavailability in cynomolgus monkey at 0.5 mg/kg; format: ADME, organism-based, Macaca fascicularis; conditions: in vivo
Cynomolgus monkey [9] = assay: AUC (0 to infinity) in cynomolgus monkey at 0.5 mg/kg, po; format: ADME, organism-based, Macaca fascicularis, Plasma; set-up: time infinity, dose 0.5 mg/kg, route oral; conditions: in vivo
Cynomolgus monkey [10] = assay: AUC (0 to infinity) in cynomolgus monkey at 0.5 mg/kg, iv; format: ADME, organism-based, Macaca fascicularis, Plasma; set-up: time infinity, dose 0.5 mg/kg, route intravenous; conditions: in vivo
[11] = Clearance in cynomolgus monkey at 0.5 mg/kg, iv; format: ADME, organism-based, Macaca fascicularis; set-up: dose 0.5 mg/kg, route intravenous; conditions: in vivo
[12] = (§1) Oral bioavailability in cynomolgus monkey at 1 mg/kg; format: ADME, organism-based, Macaca fascicularis; conditions: in vivo
[13] = Clearance in cynomolgus monkey at 1 mg/kg, iv; format: ADME, organism-based, Macaca fascicularis; set-up: dose 1 mg/kg, route intravenous; conditions: in vivo
Cynomolgus monkey [14] = conditions: in vivo, po, 1 mg/kg
Cynomolgus monkey [15] = conditions: in vivo, iv, 1 mg/kg
Cynomolgus monkey [16] = assay: as §1; format: ADME, organism-based, Macaca fascicularis; conditions: in vivo
[17] = rhesus monkey, microsomes, 1 h, 5 µM
Description: as §3

[18] = rhesus monkey, microsomes, 5 µM
Description: as §2

in vitro [19] = conditions: human, Caco-2
Description: Apparent permeability from apical side to basolateral side of human Caco-2 cells at 10 uM after 3 hrs

[20] = Hepatitis C virus, subtype 1a, Huh-lunet, 96 h
[21] = Hepatitis C virus, genotype 1b, Huh-luc/neo-ET, 72 h

Row | SMILES | pEC50 (Hepatitis C virus [1]; [20]) | pEC50 (Hepatitis C virus [2]; [21]) | CC50 [3] [nM] | half-life at 1 µM (in vitro [4]; microsomes) [h] | remaining at 1 h, 1 µM (in vitro [5]; microsomes) [%] | half-life at 1 µM (in vitro [4]; liver microsomes) [h] | remaining at 1 h, 1 µM (in vitro [5]; liver microsomes) [%] | also measured
1 | CS(=O)(=O)Nc1ccc2c(c1)S(=O)(=O)NC(C1=C(O)[C@@H]3CCC[C@@H]3N(Cc3ccc(F)cc3)C1=O)=N2 | 6.26 | 7.64 | > 100000 | > 1 | 85 |  |  | half-life at 5 µM (in vitro [6]; microsomes): > 1 h; remaining at 1 h, 5 µM (in vitro [7]; microsomes): 100%; solubility (physchem): > 100 µM
2 | CS(=O)(=O)Nc1ccc2c(c1)S(=O)(=O)N=C(C1=C(O)[C@@H]3C4CCC(CC4)[C@@H]3N(Cc3ccc(F)cc3)C1=O)N2 | 8.22 | 9.10 | > 1000 | > 1 | 86 |  |  | 
3 | CS(=O)(=O)Nc1ccc2c(c1)S(=O)(=O)N=C(C1=C(O)[C@H]3[C@H]4CC[C@H](C4)[C@H]3N(Cc3ccc(F)cc3)C1=O)N2 | 5.60 | 6.57 | > 33000 | > 1 | 75 |  |  | bioavailability [8]: 26%; AUC (Cynomolgus monkey [9]): 409 ng·h/mL; AUC (Cynomolgus monkey [10]): 1570 ng·h/mL; clearance [11]: 5.7 mL/min/kg; half-life at 5 µM (in vitro [6]; microsomes): > 1 h; remaining at 1 h, 5 µM (in vitro [7]; microsomes): 95%
4 | CS(=O)(=O)Nc1ccc2c(c1)S(=O)(=O)N=C(C1=C(O)C3CC=CCC3N(Cc3ccc(F)cc3)C1=O)N2 (racemic) | 7.09 | 8.15 | > 1000 |  |  | > 1 | 87 | 
5 | CS(=O)(=O)Nc1ccc2c(c1)S(=O)(=O)N=C(C1=C(O)[C@@H]3[C@H]4CC[C@H](C4)[C@@H]3N(Cc3ccc(F)cc3)C1=O)N2 [SETROBUVIR] | 7.74 | 8.52 | > 100000 | > 1 | 75 |  |  | bioavailability [12]: 52%; clearance [13]: 0.18 mL/min/kg; AUC (Cynomolgus monkey [14]): 49400 ng·h/mL; AUC (Cynomolgus monkey [15]): 94900 ng·h/mL; half-life at 5 µM (in vitro [6]; microsomes): > 1 h; remaining at 1 h, 5 µM (in vitro [7]; microsomes): 98%
6 | CS(=O)(=O)Nc1ccc2c(c1)S(=O)(=O)N=C(C1=C(O)[C@@H]3[C@@H]4CC[C@@H](C4)[C@@H]3N(Cc3ccc(F)cc3)C1=O)N2 | 7.19 | 8.15 | > 1000 | > 1 | 85 |  |  | 
7 | CS(=O)(=O)Nc1ccc2c(c1)S(=O)(=O)N=C(C1=C(O)[C@H]3[C@@H]4CC[C@@H](C4)[C@H]3N(Cc3ccc(F)cc3)C1=O)N2 | 5.27 | 6.26 | > 33000 | 0.333 |  |  |  | bioavailability [8]: 12%; AUC (Cynomolgus monkey [9]): 163 ng·h/mL; AUC (Cynomolgus monkey [10]): 1390 ng·h/mL; clearance [11]: 6.5 mL/min/kg; half-life at 5 µM (in vitro [6]; microsomes): > 1 h; remaining at 1 h, 5 µM (in vitro [7]; microsomes): 58%
8 | CS(=O)(=O)Nc1ccc2c(c1)S(=O)(=O)N=C(C1=C(O)C3C4CCC(C4)C3N(Cc3ccc(F)cc3)C1=O)N2 (racemic; 2b) |  |  |  |  | 73 |  |  | pEC50 (Hepatitis C virus [1]; huh-lunet): 7.04; pEC50 (Hepatitis C virus [2]; huh-luc/neo-et): 8.70; F (Cynomolgus monkey [16]): 25%; Stability [17]: 92%; AUC (Cynomolgus monkey [14]): 1350 ng·h/mL; AUC (Cynomolgus monkey [15]): 5500 ng·h/mL
9 | CS(=O)(=O)Nc1ccc2c(c1)S(=O)(=O)N=C(C1=C(O)[C@@H]3[C@H]4CC[C@H](C4)[C@@H]3N(Cc3ccc(F)c(F)c3)C1=O)N2 | 7.43 | 8.15 |  |  |  | > 1 | 100 | bioavailability [12]: 45%; clearance [13]: 0.37 mL/min/kg; t1/2 [18]: 1 h; Stability [17]: 95%; AUC (Cynomolgus monkey [14]): 20300 ng·h/mL; AUC (Cynomolgus monkey [15]): 44800 ng·h/mL; Papp A→B at 3 h, 10 µM (in vitro [19]): 1.05 ×10⁻⁶ cm/s; solubility (physchem): > 100 µM
10 | CS(=O)(=O)Nc1ccc2c(c1)S(=O)(=O)N=C(C1=C(O)[C@@H]3[C@@H]([C@H]4CC[C@@H]3O4)N(Cc3ccc(F)cc3)C1=O)N2 | 7.18 | 8.22 | > 1000 |  |  | > 1 | 100 | bioavailability [12]: 3%; clearance [13]: 6.3 mL/min/kg; AUC (Cynomolgus monkey [14]): 90 ng·h/mL; AUC (Cynomolgus monkey [15]): 2650 ng·h/mL; half-life at 5 µM (in vitro [6]; liver microsomes): > 1 h; remaining at 1 h, 5 µM (in vitro [7]; liver microsomes): 100%; Papp A→B at 3 h, 10 µM (in vitro [19]): 0.08 ×10⁻⁶ cm/s; solubility (physchem): > 100 µM
11 | CS(=O)(=O)Nc1ccc2c(c1)S(=O)(=O)N=C(C1=C(O)[C@@H]3[C@H]4CC[C@H](C4)[C@@H]3N(Cc3cccc(F)c3)C1=O)N2 | 6.48 | 8.00 |  | > 1 | 85 |  |  | 
12 | CS(=O)(=O)Nc1ccc2c(c1)S(=O)(=O)N=C(C1=C(O)[C@@H]3C4CCC(CC4)[C@@H]3N(Cc3cccc(F)c3)C1=O)N2 | 7.01 | 8.40 |  | > 1 | 88 |  |  | 
13 | COc1cccc(CN2C(=O)C(C3=NS(=O)(=O)c4cc(NS(C)(=O)=O)ccc4N3)=C(O)[C@@H]3C4CCC(CC4)[C@@H]32)c1 | 6.57 | 8.30 |  |  |  | > 1 | 50 | 
14 | CS(=O)(=O)Nc1ccc2c(c1)S(=O)(=O)N=C(C1=C(O)[C@@H]3C4CCC(CC4)[C@@H]3N(Cc3ccc(F)c(F)c3F)C1=O)N2 | 6.82 | 8.10 |  |  |  | > 1 | 100 | 
15 | Cc1cc(CN2C(=O)C(C3=NS(=O)(=O)c4cc(NS(C)(=O)=O)ccc4N3)=C(O)[C@@H]3[C@H]4CC[C@H](C4)[C@@H]32)ccc1F | 7.47 | 8.22 |  |  |  | > 1 | 70 | bioavailability [12]: 35%; clearance [13]: 0.67 mL/min/kg; AUC (Cynomolgus monkey [14]): 8780 ng·h/mL; AUC (Cynomolgus monkey [15]): 25000 ng·h/mL; half-life at 5 µM (in vitro [6]; liver microsomes): 0.817 h
16 | CS(=O)(=O)Nc1ccc2c(c1)S(=O)(=O)N=C(C1=C(O)[C@@H]3[C@H]4CC[C@H](C4)[C@@H]3N(Cc3cccs3)C1=O)N2 | 7.18 | 7.74 |  | > 1 | 81 |  |  | 
17 | CS(=O)(=O)Nc1ccc2c(c1)S(=O)(=O)N=C(C1=C(O)[C@@H]3C4CCC(CC4)[C@@H]3N(Cc3ccccc3Cl)C1=O)N2 | 6.18 | 7.77 |  |  |  | > 1 | 100 | 
18 | CS(=O)(=O)Nc1ccc2c(c1)S(=O)(=O)N=C(C1=C(O)[C@@H]3[C@H]4CC[C@H](C4)[C@@H]3N(Cc3ccc(F)c(Cl)c3)C1=O)N2 | 7.49 | 8.00 |  |  |  | > 1 | 87 | 
19 | CS(=O)(=O)Nc1ccc2c(c1)S(=O)(=O)NC(C1=C(O)[C@@H]3[C@@H]4CC[C@@H](C4)[C@@H]3N(Cc3ccccc3)C1=O)=N2 | 6.47 | 8.00 |  |  |  | > 1 | 90 | 
20 | CS(=O)(=O)Nc1ccc2c(c1)S(=O)(=O)N=C(C1=C(O)C3C4CCC(C4)C3N(Cc3ccc(F)cc3)C1=O)N2 (racemic; 2a) |  |  | > 1000 | 0.567 |  |  |  | pEC50 (Hepatitis C virus [1]; huh-lunet): 6.48; pEC50 (Hepatitis C virus [2]; huh-luc/neo-et): 8.30; F (Cynomolgus monkey [16]): 48%; AUC (Cynomolgus monkey [14]): 30700 ng·h/mL; AUC (Cynomolgus monkey [15]): 63900 ng·h/mL; half-life at 5 µM (in vitro [6]; microsomes): > 1 h; remaining at 1 h, 5 µM (in vitro [7]; microsomes): 91%
21 | CS(=O)(=O)Nc1ccc2c(c1)S(=O)(=O)NC(C1=C(O)[C@@H]3[C@@H]4CC[C@@H](C4)[C@@H]3N(Cc3ccc(F)c(F)c3)C1=O)=N2 | 6.96 | 7.89 |  |  |  | > 1 | 97 | 
